Results: paper PMC5435703 (Scientific Reports, 2017)
Values after ≈ are worked out from the molar mass of the structure shown. Where two headings read alike, the source gives them in different places. Marks after values point to notes of the source that are not given here.

What was measured:
MRSA-1 = assay: MIC broth microdilution assay; assay type: cell-based, Staphylococcus aureus; settings: Staphylococcus aureus, MRSA; Table 1; read-out: MIC MRSA-1
MRSE 35984 [1] = assay: MIC broth microdilution assay; assay type: cell-based, Staphylococcus epidermidis; settings: for MIC: Staphylococcus epidermidis, MRSE
VRE 700221 [2] = assay: MIC broth microdilution assay; assay type: cell-based, Enterococcus faecium
MRSA BAA-44 = assay: MIC broth microdilution assay; assay type: cell-based; settings: Staphylococcus aureus; Table 1; read-out: MIC MRSA BAA-44
MRSA-2 = assay: MIC broth microdilution assay; assay type: cell-based, Staphylococcus aureus; settings: Staphylococcus aureus, MRSA; Table 1; read-out: MIC MRSA-2
MRSA BAA-1707 [3] = assay: MIC broth microdilution assay; assay type: cell-based, Staphylococcus aureus; settings: Staphylococcus aureus
S. epi 12228 = assay: MIC broth microdilution assay; assay type: cell-based, Staphylococcus epidermidis
[4] = Hemolysis assay with red blood cells; settings: human, pH 7.2
MRSE 35984 [5] = assay: Calgary Biofilm Device (CBD) MBC/MBEC assay; assay type: cell-based, Staphylococcus epidermidis; settings: Staphylococcus epidermidis, MRSE; CBD, planktonic killing; read-out: MRSE 35984 MBC
[6] = LDH release assay for HeLa cytotoxicity; assay type: cell-based; settings: human, HeLa cells; LDH release, 24 hours; tested at 25, 50 and 100 µM; read-out: HeLa Cytotox. IC50
MRSA BAA-1707 [7] = assay: Calgary Biofilm Device (CBD) MBC/MBEC assay; assay type: cell-based, Staphylococcus aureus; settings: for MBC: Staphylococcus aureus
VRE 700221 [8] = assay: Calgary Biofilm Device (CBD) MBC/MBEC assay; assay type: cell-based, Enterococcus faecium; settings: Enterococcus, VRE; CBD, planktonic killing; read-out: VRE 700221 MBC
MtB H37Ra = assay: MIC assay for Mycobacterium tuberculosis; assay type: cell-based; settings: 168 h, seven days
MRSA BAA-1707 [9] = assay: MIC assay with metal(II) cation co-treatment; assay type: cell-based, Staphylococcus aureus; settings: Staphylococcus aureus
[10] = Table 1, read-out: MIC MRSE 35984
[11] = Enterococcus, VRE, Table 1, read-out: MIC VRE 700221
[12] = Table 1, three independent experiments, read-out: MIC MRSA BAA-1707
[13] = single plate shown as picture, read-out: MIC (µM), MIC Assay against MRSA BAA-1707
[14] = Staphylococcus epidermidis, 12228, Table 1, read-out: MIC S. epi 12228
[15] = 24 h, CBD, planktonic killing, 24 hours treatment, read-out: MRSA BAA-1707 MBC

For CCc1cccc2nc3c(O)c(Br)cc(C)c3nc12 [HP 6], the MIC (MRSA-1) was 0.78 µM (≈ 0.247 µg/mL), the MIC (MRSE 35984 [1]; [10]) was 0.3 to 0.78 µM (≈ 0.0952 to 0.247 µg/mL) and the “MIC MRSE 35984” value (MRSE 35984 [1]; Table 1) was 0.30^a µM. It also gave an MIC (VRE 700221 [2]; [11]) of 0.78 to 2.35 µM (≈ 0.247 to 0.745 µg/mL) and an MIC (VRE 700221 [2]; Table 1, read-out: MIC VRE 700221) of 0.78 µM (≈ 0.247 µg/mL).

Compound Cc1ccc2nc3c(Br)cc(Br)c(O)c3nc2c1 [HP 20] has an MIC (MRSA BAA-44) of […], an MIC (MRSA-2) of […] and an MIC (MRSE 35984 [1]; [10]) of 6.25 µM (≈ 2.3 µg/mL).

Compound CCCCc1cc(Br)c(O)c2nc3ccccc3nc12 [HP 2] has an MIC (MRSA BAA-1707 [3]; [12]) of 0.78 µM (≈ 0.258 µg/mL), an MIC (MRSA BAA-1707 [3]; [13]) of 0.78 µM (≈ 0.258 µg/mL) and an MIC (MRSA-1) of 0.78 µM (≈ 0.258 µg/mL). For the same compound, the MIC (MRSA-2) was 3.13 µM (≈ 1.04 µg/mL) and the MIC (VRE 700221 [2]; [11]) was 0.78 µM (≈ 0.258 µg/mL).

Work on Oc1c(Br)cc(Br)c2nc3ccc(Br)cc3nc12 [HP 3] yielded an MIC (MRSA BAA-1707 [3]; [12]) of 0.2 µM (≈ 0.0866 µg/mL), an MIC (S. epi 12228; [14]) of 3.13 µM (≈ 1.35 µg/mL) and an MIC (MRSE 35984 [1]; [10]) of 3.13 µM (≈ 1.35 µg/mL).

Work on Cc1cc(Br)c(O)c2nc3cc(Br)ccc3nc12 [HP 14] yielded an MIC (MRSA BAA-1707 [3]; [12]) of 9.38 µM (≈ 3.45 µg/mL), an MIC (MRSA-1) of 75 µM (≈ 27.6 µg/mL) and an MIC (MRSE 35984 [1]; [10]) of 75 µM (≈ 27.6 µg/mL).

In the case of Cc1cccc2nc3c(O)c(Br)cc(C)c3nc12 [HP 5], the MIC (MRSA BAA-1707 [3]; [12]) is reported as 9.38 µM (≈ 2.84 µg/mL), the MIC (MRSA BAA-1707 [3]; [13]) is reported as 12.5 µM (≈ 3.79 µg/mL) and the MIC (MRSA-1) is reported as 37.5 µM (≈ 11.4 µg/mL). It also gave an MIC (VRE 700221 [2]; [11]) of over 100 µM.

For Cc1cc(Cl)c2nc3c(C)cc(Br)c(O)c3nc2c1 [HP 9], the MIC (MRSA BAA-44) was 1.56 µM (≈ 0.527 µg/mL), the hemolysis at 1 h, 200 µM [4] was at most 1% and the MBC (MRSE 35984 [5]) was 12.5 µM (≈ 4.22 µg/mL). The IC50 at 24 h [6] was over 100 µM, the MBC (MRSA BAA-1707 [7]; [15]) was over 200 µM and the MBC (VRE 700221 [8]) was 12.5 µM (≈ 4.22 µg/mL). It also gave an MIC (MRSA-1) of 1.56 µM (≈ 0.527 µg/mL), an MIC (MtB H37Ra) of 50 µM (≈ 16.9 µg/mL) and an MIC (MRSA-2) of 2.35 µM (≈ 0.793 µg/mL).

For CN[C@H](CC(C)C)C(=O)N[C@H]1C(=O)N[C@@H](CC(N)=O)C(=O)N[C@H]2C(=O)N[C@H]3C(=O)N[C@H](C(=O)N[C@H](C(=O)O)c4cc(O)cc(O)c4-c4cc3ccc4O)[C@H](O)c3ccc(c(Cl)c3)Oc3cc2cc(c3O[C@@H]2O[C@H](CO)[C@@H](O)[C@H](O)[C@H]2O[C@H]2C[C@](C)(N)[C@H](O)[C@H](C)O2)Oc2ccc(cc2Cl)[C@H]1O [vancomycin, reference compound], the MBC (MRSE 35984 [5]) was 3 µM (≈ 4.35 µg/mL), the “MRSA-1707 Biofilm Eradication MBEC” value (MRSA BAA-1707 [7]; Figure 7A, single CBD plate) was over 2000 µM and the MBC (MRSA BAA-1707 [7]; Figure 7A, single CBD plate, read-out: MRSA-1707 Planktonic Eradication MBC) was 3.9 µM (≈ 5.65 µg/mL). For the same compound, the MBC (MRSA BAA-1707 [7]; CBD, planktonic killing, 24 hours treatment, read-out: MRSA BAA-1707 MBC) was 3.9 µM (≈ 5.65 µg/mL), the MBC (VRE 700221 [8]) was over 200 µM and the MIC (S. epi 12228; Staphylococcus epidermidis, 12228, read-out: MIC S. epi 12228) was 1.17 µM (≈ 1.7 µg/mL). The MIC (VRE 700221 [2]; Enterococcus, VRE, read-out: MIC VRE 700221) was over 100 µM and the MIC (VRE 700221 [2]; Enterococcus, VRE, read-out: VRE 700221 MIC) was over 100 µM.

For CCCCCCCCCC(=O)N[C@@H](Cc1c[nH]c2ccccc12)C(=O)N[C@H](CC(N)=O)C(=O)N[C@@H](CC(=O)O)C(=O)N[C@@H]1C(=O)NCC(=O)N[C@@H](CCCN)C(=O)N[C@@H](CC(=O)O)C(=O)N[C@H](C)C(=O)N[C@@H](CC(=O)O)C(=O)NCC(=O)N[C@H](CO)C(=O)N[C@@H]([C@H](C)CC(=O)O)C(=O)N[C@@H](CC(=O)c2ccccc2N)C(=O)O[C@@H]1C [daptomycin, reference compound], the MIC (MRSA BAA-44) was 18.8 µM (≈ 30.5 µg/mL), the MIC (MRSA BAA-1707 [3]; [12]) was 3.13 µM (≈ 5.07 µg/mL) and the MIC (MRSA BAA-1707 [3]; Table 3, read-out: MRSA BAA-1707 MIC) was 3.13 µM (≈ 5.07 µg/mL). For the same compound, the “MRSA BAA-1707 MBEC” value (MRSA BAA-1707 [7]; CBD, biofilm eradication, 24 hours treatment) was over 2000 µM, the MBC (MRSA BAA-1707 [7]; [15]) was 125 µM (≈ 203 µg/mL) and the MBC (VRE 700221 [8]) was 375 µM (≈ 608 µg/mL). It also gave an MIC (S. epi 12228; [14]) of 6.25 µM (≈ 10.1 µg/mL), an MIC (MRSE 35984 [1]; [10]) of 12.5 µM (≈ 20.3 µg/mL) and an MIC (MRSE 35984 [1]; Table 3, read-out: MRSE 35984 MIC) of 12.5 µM (≈ 20.3 µg/mL). It also gave an MIC (VRE 700221 [2]; [11]) of 125 µM (≈ 203 µg/mL) and an MIC (VRE 700221 [2]; Enterococcus, VRE, Table 3, read-out: VRE 700221 MIC) of 125 µM (≈ 203 µg/mL).

CCc1cc(Br)c2nc3c(C)cc(Br)c(O)c3nc2c1 [HP 10] gave an MIC (MRSA-1) of 50 µM (≈ 19.8 µg/mL), an MIC (MRSE 35984 [1]; [10]) of 37.5 µM (≈ 14.9 µg/mL) and an MIC (VRE 700221 [2]; [11]) of 50 µM (≈ 19.8 µg/mL).

Oc1cccc2cccnc12 [8-OHQ, 8-hydroxyquinoline, reference compound] gave an MIC (MRSA BAA-1707 [9]) of 9.38 µM, an MIC (MRSA BAA-1707 [9]; read-out: MIC w/Cu2+) of 4.69 µM and an MIC (MRSA BAA-1707 [9]; read-out: MIC w/Fe2+) of 12.5 µM. The MIC (MRSA BAA-1707 [9]; read-out: MIC w/Mg2+) was 6.25 µM and the MIC (MRSA BAA-1707 [9]; read-out: MIC w/Zn2+) was 12.5 µM.

Compound Oc1cccc2nc3ccccc3nc12 [1-OHP, 1-hydroxyphenazine, reference compound] has an MIC (MRSA BAA-1707 [9]; Table 2, MRSA BAA-1707, no metal(II) cation added, read-out: MIC) of 250 µM, an MIC (MRSA BAA-1707 [9]; copper(II) at 200 µM co-treatment, read-out: MIC w/Cu2+) of 75 µM and an MIC (MRSA BAA-1707 [9]; iron(II) at 200 µM co-treatment, read-out: MIC w/Fe2+) of 250 µM. The MIC (MRSA BAA-1707 [9]; magnesium(II) at 200 µM co-treatment, read-out: MIC w/Mg2+) was 250 µM and the MIC (MRSA BAA-1707 [9]; zinc(II) at 200 µM co-treatment, read-out: MIC w/Zn2+) was over 500 µM.
